Measurements reported in paper PMC11320730, “5-Methoxy-2-aminoindane Reverses Diet-Induced Obesity and Improves Metabolic Parameters in Mice: A Potential New Class of Antiobesity Therapeutics” (ACS Pharmacology & Translational Science, 2024).

What was measured:
[1] = tested on: serotonin transporter (SERT); set-up: method as in PMID 30904940; settings: cited from earlier work
[2] = tested on: dopamine transporter (DAT); set-up: method as in PMID 30904940; settings: cited from earlier work
DIO C57BL/6 mice = test: Multiparameter metabolic assessment in DIO mice; assay type: in vivo
Procedure: (§1) Male C57BL/6 mice were used to establish DIO by feeding them a high-fat diet (HFD; 60% cal/L fat, 20% cal/L protein, and 20% cal/L carbohydrates; Research Diet, D12492) for 18 weeks. After this period, mice were treated with either vehicle (sterile water, N = 8) or MEAI (N = 11) daily for 28 days by gavage at a dose of 40 mg/kg/day. Age-matched control mice (N = 10) on a standard diet (STD; 14% kcal fat, 24% kcal protein, 62% kcal carbohydrates; NIH-31 rodent diet) received vehicle daily. The body weight of all mice was monitored daily, and total body fat and lean mass were determined by EchoMRI-100H (Echo Medical Systems LLC, Houston, Texas, USA). On day 29, at the end of the experimental period, mice were euthanized by a cervical dislocation under anesthesia. The kidneys, brain, liver, and fat pads were removed and weighed, and samples were either snap-frozen or fixed in buffered 4% formalin. Trunk blood was collected to determine the biochemical parameters.
The metabolic profiles and food and water intakes of the mice were assessed using the Promethion High-Definition Behavioral Phenotyping System (Sable Instruments, Inc., Las Vegas, Nevada, USA). MetaScreen software version 2.2.18.0 was used for data acquisition and instrument control. Raw data were processed using ExpeData version 1.8.4 with an analysis script detailing all aspects of the data transformation. Mice with free access to food and water, housed at temperatures of (22–23 °C), were subjected to a standard 12 h light/12 h dark cycle, which consisted of a 48 h acclimation period followed by 24 h of sampling after dosing. Respiratory gases were measured using the GA-3 gas analyzer (Sable Systems, Inc., Las Vegas, Nevada, USA) employing a pull-mode negative-pressure system. Airflow was measured and controlled by an FR-8 instrument (Sable Systems, Inc., Las Vegas, Nevada, USA) at a flow rate of 2000 mL/min. Water vapor was continuously measured, and its dilution effect on O2 and CO2 was mathematically compensated. Respiratory exchange rate (RER) was calculated as the ratio of CO2 produced (VCO2) to O2 consumed (VO2) using eq 1): [drawing 1] 1
Total energy expenditure (TEE) was calculated using VO2 and RER, according to eq 2: [drawing 2] 2
Fat oxidation (FO) and carbohydrate oxidation (CHO) were calculated using VO2 and VCO2 based on eqs 3 and 4, respectively: [drawing 3] 3 [drawing 4] 4
Energy balance and energy flux were derived from eqs 5 and 6: [drawing 5] 5 [drawing 6] 6
The thermic effect of food for each animal was calculated based on its individual food intake in a period of 24 h according to the specific percentage of carbohydrates, fats, and proteins in the consumed diet.
The basal energy expenditure was calculated based on the mean energy expenditure (EE) during the lowest EE in a 30 min period, in kilocalories per hour (kcal/h). This calculation represented the animal’s basal metabolic rate.

C57Bl/6 mice [3] = test: Sucrose preference test; assay type: in vivo; settings: 40 mg/kg, single dose
Procedure: Thirteen-week-old male C57BL/6 mice, maintained on a STD and housed individually, were habituated to two water bottles in their home cage for 48 h prior to the test. Baseline intake was measured by weighing the bottles. On the test day (day 1), 2 h before the onset of the dark phase, fresh water and a 1.5% sucrose solution were added to the bottles and mice were subsequently treated orally with MEAI (40 mg/kg, N = 8) or sterile water (N = 8). The mice were allowed to freely drink from either bottle for 24 h, after which the bottles were weighed to measure consumption. The study was repeated for an additional day (day 2), with the bottles switched in position (in the cage) to account for side preference. The sucrose and water intake over the 2 days were averaged, and the sucrose preference index was calculated as the average consumed sucrose solution divided by the average volume of total consumed liquid (average water plus average sucrose solution).

[4] = tested on: hepatic lipid metabolism genes; test: Real-time PCR of liver mRNA in DIO mice; assay type: in vivo; settings: 40 mg/kg/day
Procedure: as §1
mRNA from livers was extracted using a Bio-Tri RNA lysis buffer (Bio-Lab, Israel), followed by DNase I treatment (Thermo Scientific, Illinois, USA), and reverse transcribed using the qScript cDNA Synthesis kit (Quantabio, Beverly, Massachusetts, USA). Real-time PCR was performed using an iTaq Universal SYBR Green Supermix (Bio-Rad, California, USA) and the CFX connect ST system (Bio-Rad, California, USA). The full list of primers is available as Table S1.

C57Bl/6 mice [5] = test: Acute single oral dose of MEAI: drug tolerability; assay type: in vivo; settings: lean male mice
Procedure: Male 6-week-old C57Bl/6 mice (Harlan, Israel) were maintained in standard conditions under a 12 h light/dark cycle and fed ad libitum. A total of 32 animals were divided into four experimental groups (N = 8 mice per group) receiving single doses of 40, 60, or 100 mg/kg of MEAI or vehicle (sterile water), which was administered via oral gavage 2 h prior to the dark phase. The animals were monitored for 48 h postdose for drug tolerability, food and water intakes, and activity and metabolic parameters. At the end of the experiment, the animals were euthanized, and tissues (brain, liver, fat, and kidney) and blood were collected and stored in a frozen state for future analyses.

[6] = DIO mice, 40 mg/kg/day, vs HFD vehicle

COc1ccc2c(c1)CC(N)C2.Cl (stereo not shown) [MEAI, 2,3-Dihydro-5-methoxy-1H-inden-2-amine hydrochloride]
interaction with transporter [1]: interacts
interaction with transporter [2]: interacts
basal energy expenditure (DIO C57BL/6 mice; DIO mice, 40 mg/kg/day): significantly boosted
cumulative TEE (DIO C57BL/6 mice; DIO mice, 40 mg/kg/day): increases
water consumption (DIO C57BL/6 mice; DIO mice, 40 mg/kg/day): did not exert any significant influence
total food intake over 24 h (DIO C57BL/6 mice; DIO mice, 40 mg/kg/day, across all groups): similar
overall energy balance (DIO C57BL/6 mice; DIO mice, 40 mg/kg/day, across the groups): no significant changes
thermodynamic (thermic) effect of food (DIO C57BL/6 mice; DIO mice, 40 mg/kg/day, between groups): remained unchanged
RER (DIO C57BL/6 mice; DIO mice, 40 mg/kg/day, in comparison to STD vehicle group): slightly decreased
differences in TEE by ANCOVA using lean mass as covariant (DIO C57BL/6 mice; DIO mice, 40 mg/kg/day, p = 0.0097 vs HFD vehicle): treatment-dependent
average energy expenditure (DIO C57BL/6 mice; DIO mice, 40 mg/kg/day, vs HFD and STD vehicle, light and dark phases): significant increase
CHO levels (DIO C57BL/6 mice; [6]): no direct effect of the drug itself observed
carbon dioxide production (DIO C57BL/6 mice; [6]): slightly increased
oxygen consumption (DIO C57BL/6 mice; [6]): slightly increased
overall rate of FO (DIO C57BL/6 mice; DIO mice, 40 mg/kg/day, vs HFD- and STD-vehicle groups): increase
energy flux (DIO C57BL/6 mice; DIO mice, 40 mg/kg/day, vs vehicle groups): significant increase
meal size (food intake per meal) (DIO C57BL/6 mice; HFD-fed mice regardless of MEAI treatment (40 mg/kg/day), vs STD): significant reduction
preference for sucrose solution (C57Bl/6 mice [3]; 1.5% sucrose, most evident during initial 24 h, vs vehicle): significantly reduced
water intake levels (C57Bl/6 mice [3]; sucrose preference test): without any accompanying decrease
7-dehydrocholesterol reductase (Dhcr) expression [4]: no significant changes
Acaca mRNA expression [4]: significantly decreased
Crebp expression [4]: did not affect
Dgat2 expression [4]: did not affect
Fabp1 mRNA expression [4]: significantly decreased
Fasn mRNA expression [4]: significantly decreased
G6pdx mRNA expression [4]: significantly decreased
Hmgcr expression [4]: no significant changes
LDL receptor (Lldr) expression [4]: no significant changes
Nr1h3 expression [4]: no significant changes
Pparg expression [4]: did not affect
Scd1 mRNA expression [4]: significantly decreased
Srebp1 expression [4]: did not affect
hormone-sensitive lipase (Hsl) mRNA expression [4]: no significant changes
Cd36 mRNA expression ([4]; p < 0.05): significantly downregulated
lipoprotein lipase (Lpl) mRNA level ([4]; p < 0.05): significant decrease
deaths after dosing (C57Bl/6 mice [5]; single oral dose 100 mg/kg, within a few hours): two subjects in the 100 mg/kg group died
drug tolerability (C57Bl/6 mice [5]; single oral dose, 40 and 60 mg/kg): well-tolerated
